# Experiments:
# Assay in all cases: ≥ marks a high value that may be exact or a test limit, other limits are often not marked, values filed in µg/mL are converted to µM
# Candida albicans = tested on: Candida albicans
# [1] = tested on: Enterococcus faecalis ATCC 29212
# Escherichia coli UB1005 = tested on: Escherichia coli UB1005
# [2] = tested on: Pseudomonas aeruginosa H103
# [3] = tested on: Salmonella enterica serovar Typhimurium
# [4] = tested on: Staphylococcus aureus ATCC 25923
# [5] = tested on: Staphylococcus epidermidis
# Bacillus subtilis 168 = tested on: Bacillus subtilis 168
# [6] = tested on: Candida albicans F7-39/IDE99
# Escherichia coli B = tested on: Escherichia coli B
# [7] = tested on: Micrococcus luteus CCM 144
# [8] = tested on: Pseudomonas aeruginosa ATCC 27853
# Pseudomonas aeruginosa = tested on: Pseudomonas aeruginosa
# Staphylococcus aureus 1 = tested on: Staphylococcus aureus 1
# [9] = tested on: Staphylococcus aureus ATCC 43300
# Staphylococcus aureus = tested on: Staphylococcus aureus
# Acinetobacter baumannii = tested on: Acinetobacter baumannii
# [10] = tested on: Escherichia coli ATCC 25922
# Escherichia coli = tested on: Escherichia coli
# [11] = tested on: Pseudomonas aeruginosa PAO1
SMILES,MIC (Candida albicans),MIC [1],MIC (Escherichia coli UB1005),MIC [2],MIC [3],MIC [4],MIC [5],MIC (Bacillus subtilis 168),MIC [6],MIC (Escherichia coli B),MIC [7],MIC [8],MIC (Pseudomonas aeruginosa),MIC (Staphylococcus aureus 1),MIC [9],MIC (Staphylococcus aureus),MIC (Acinetobacter baumannii),MIC [10],MIC (Escherichia coli),MIC [11]
CC[C@H](C)[C@H](NC(=O)[C@@H](NC(=O)[C@@H](NC(=O)[C@H](CCCN=C(N)N)NC(=O)[C@@H](NC(=O)[C@H](CCCN=C(N)N)NC(=O)[C@H](Cc1c[nH]c2ccccc12)NC(=O)[C@H](CCCCN)NC(=O)[C@@H](N)Cc1c[nH]c2ccccc12)C(C)C)C(C)C)[C@@H](C)O)C(=O)O [WKWRVRVTI],10.8 µM,2.7 µM,1.3 µM,5.4 µM,2.7 µM,2.7 µM,1.3 µM,–,–,–,–,–,–,–,–,–,–,–,–,–
CC[C@H](C)[C@H](NC(=O)CN)C(=O)N[C@@H](Cc1c[nH]c2ccccc12)C(=O)N[C@@H](CO)C(=O)N[C@@H](CO)C(=O)N[C@@H](CC(C)C)C(=O)N[C@@H](CC(C)C)C(=O)N[C@@H](CCCCN)C(=O)N[C@@H](CCCCN)C(=O)N[C@@H](CC(C)C)C(=O)N[C@@H](CCCCN)C(=O)N[C@@H](CCCCN)C(=O)N[C@H](C(=O)N[C@H](C(=O)N[C@@H](C)C(=O)N[C@@H](CCCCN)C(N)=O)[C@@H](C)CC)[C@@H](C)CC [GIWSSLLKKLKKIIAK],–,–,–,–,–,–,1.5 µM,7 µM,16 µM,1.6 µM,3 µM,6.3 µM,21 µM,4.6 µM,20 µM,5.3 µM,–,–,–,–
CC[C@H](C)[C@H](NC(=O)[C@H](CCCN=C(N)N)NC(=O)[C@H](CC(C)C)NC(=O)[C@H](CCC(N)=O)NC(=O)[C@@H](N)C(C)C)C(=O)N[C@@H](CCCN=C(N)N)C(=O)N[C@H](C(=O)N[C@@H](CS)C(=O)N[C@H](C(=O)N[C@H](C(=O)N[C@@H](CCCN=C(N)N)C(=O)N[C@@H](CCCCN)C(=O)O)[C@@H](C)CC)C(C)C)C(C)C [VQLRIRVCVIRK],–,–,–,–,5.39 µM,10.8 µM,–,–,–,–,–,–,10.8 µM,–,–,7.63 µM,21.6 µM,10.8 µM,30.5 µM,10.8 µM
CC[C@H](C)[C@H](NC(=O)CN)C(=O)N[C@@H](CCSC)C(=O)N[C@@H](CO)C(=O)N[C@@H](CO)C(=O)N[C@@H](CC(C)C)C(=O)N[C@@H](CCSC)C(=O)N[C@@H](CCCCN)C(=O)N[C@@H](CCCCN)C(=O)N[C@@H](CC(C)C)C(=O)N[C@@H](C)C(=O)N[C@@H](C)C(=O)N[C@@H](Cc1cnc[nH]1)C(=O)N[C@H](C(=O)N[C@@H](C)C(=O)N[C@@H](CCCCN)C(N)=O)[C@@H](C)CC [GIMSSLMKKLAAHIAK],–,–,–,–,–,–,13 µM,7 µM,18 µM,15 µM,3 µM,20 µM,68 µM,≥ 53 µM,63 µM,64 µM,–,–,–,–

# Continued by falling MIC [5], values first:
MIC (Candida albicans),MIC [1],MIC (Escherichia coli UB1005),MIC [2],MIC [3],MIC [4],MIC [5],MIC (Bacillus subtilis 168),MIC [6],MIC (Escherichia coli B),MIC [7],MIC [8],MIC (Pseudomonas aeruginosa),MIC (Staphylococcus aureus 1),MIC [9],MIC (Staphylococcus aureus),MIC (Acinetobacter baumannii),MIC [10],MIC (Escherichia coli),MIC [11],SMILES
–,–,–,–,–,–,2.9 µM,7 µM,7.6 µM,15 µM,3 µM,5.2 µM,10 µM,8.6 µM,33 µM,17 µM,–,–,–,–,CC[C@H](C)[C@H](NC(=O)CN)C(=O)N[C@@H](CCSC)C(=O)N[C@@H](CO)C(=O)N[C@@H](CO)C(=O)N[C@@H](CC(C)C)C(=O)N[C@@H](CCSC)C(=O)N[C@@H](CCCCN)C(=O)N[C@@H](CCCCN)C(=O)N[C@@H](CC(C)C)C(=O)N[C@@H](C)C(=O)N[C@@H](CCCCN)C(=O)N[C@H](C(=O)N[C@H](C(=O)N[C@@H](CCCCN)C(=O)N[C@@H](CCCCN)C(N)=O)[C@@H](C)CC)[C@@H](C)CC [GIMSSLMKKLAKIIKK]
4.12 µM,–,1.1 µM,4.12 µM,4.12 µM,8.24 µM,1.1 µM,–,–,–,–,–,–,–,–,–,–,–,–,–,CC[C@H](C)[C@H](NC(=O)[C@H](CCCN=C(N)N)NC(=O)[C@H](Cc1ccccc1)NC(=O)[C@H](CCCN=C(N)N)NC(=O)[C@@H](N)C(C)C)C(=O)N[C@@H](CCCN=C(N)N)C(=O)N[C@H](C(=O)N[C@@H](C)C(=O)N[C@H](C(=O)N[C@H](C(=O)N[C@@H](CCCN=C(N)N)C(=O)N[C@@H](C)C(N)=O)[C@@H](C)CC)C(C)C)C(C)C [VRFRIRVAVIRA]
